# According to PubChem BioAssay AID248 (DTP/NCI, 2004):
# Values joined by “and” are separate entries in the source; they are usually repeats but may differ in a detail not shown here. Equal values may be shown once. Inconclusive results and toxic doses are left out.
# Tested on: L1210 leukemia ip in BDF1 mice, survival T/C
# Assay: NCI In Vivo Anticancer Drug Screen. Data for tumor model L1210 Leukemia (intraperitoneal) in B6D2F1 (BDF1) mice
# Settings: endpoint: mean survival time, higher = longer survival
# Method in brief: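 In this screen, tumor-bearing mice given compound are compared to those given vehicle, and their survival values are reported as a treated-to-control quotient.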
# [1] = dose: 100.0 mg/kg/injection, schedule: Q01DX009 (ip), vehicle: saline with Tween-80
# [2] = dose: 200.0 mg/kg/injection, schedule: Q01DX009 (ip), vehicle: saline with Tween-80
# [3] = dose: 400.0 mg/kg/injection, schedule: Q01DX009 (ip), vehicle: saline with Tween-80
# [4] = dose: 100.0 mg/kg/injection, schedule: Q01DX009 (ip), vehicle: Klucel (hydroxypropylcellulose) (HPC)
# [5] = dose: 200.0 mg/kg/injection, schedule: Q01DX009 (ip), vehicle: Klucel (hydroxypropylcellulose) (HPC)
# [6] = dose: 400.0 mg/kg/injection, schedule: Q01DX009 (ip), vehicle: Klucel (hydroxypropylcellulose) (HPC)
# [7] = dose: 100.0 mg/kg/injection, schedule: Q04DX003 (ip), vehicle: saline with Tween-80
# [8] = dose: 200.0 mg/kg/injection, schedule: Q04DX003 (ip), vehicle: saline with Tween-80
# [9] = dose: 400.0 mg/kg/injection, schedule: Q04DX003 (ip), vehicle: saline with Tween-80
# [10] = dose: 200.0 mg/kg/injection, schedule: Q04DX002 (ip), vehicle: saline with Tween-80
# [11] = dose: 400.0 mg/kg/injection, schedule: Q04DX002 (ip), vehicle: saline with Tween-80
# [12] = dose: 100.0 mg/kg/injection, schedule: Q01DX001 (ip), vehicle: Klucel (hydroxypropylcellulose) (HPC)
# [13] = dose: 200.0 mg/kg/injection, schedule: Q01DX001 (ip), vehicle: Klucel (hydroxypropylcellulose) (HPC)
# [14] = dose: 400.0 mg/kg/injection, schedule: Q01DX001 (ip), vehicle: Klucel (hydroxypropylcellulose) (HPC)
# [15] = dose: 100.0 mg/kg/injection, schedule: Q01DX001 (ip), vehicle: carboxymethylcellulose (CMC)
# [16] = dose: 200.0 mg/kg/injection, schedule: Q01DX001 (ip), vehicle: carboxymethylcellulose (CMC)
# [17] = dose: 100.0 mg/kg/injection, schedule: Q04DX003 (ip), vehicle: saline
# [18] = dose: 200.0 mg/kg/injection, schedule: Q04DX003 (ip), vehicle: saline
# [19] = dose: 400.0 mg/kg/injection, schedule: Q04DX003 (ip), vehicle: saline
# [20] = dose: 100.0 mg/kg/injection, schedule: Q01DX009 (ip), vehicle: saline
# [21] = dose: 200.0 mg/kg/injection, schedule: Q01DX009 (ip), vehicle: saline
# [22] = dose: 400.0 mg/kg/injection, schedule: Q01DX009 (ip), vehicle: saline
smiles,measurement,setting,value
Nc1c(F)c(N)c(F)c(F)c1F,T/C,"dose: 5.0 mg/kg/injection, schedule: Q01DX001 (ip), vehicle: acetone",98 % of control
same,T/C,"dose: 10.0 mg/kg/injection, schedule: Q01DX001 (ip), vehicle: acetone",121 % of control
same,T/C,"dose: 20.0 mg/kg/injection, schedule: Q01DX001 (ip), vehicle: acetone",107 % of control
same,T/C,"dose: 20.0 mg/kg/injection, schedule: Q04DX002 (ip), vehicle: saline with Tween-80",106 % of control and 115 % of control
same,T/C,"dose: 40.0 mg/kg/injection, schedule: Q01DX001 (ip), vehicle: acetone",106 % of control
same,T/C,"dose: 40.0 mg/kg/injection, schedule: Q04DX002 (ip), vehicle: saline with Tween-80",95 % of control and 105 % of control
same,T/C,"dose: 80.0 mg/kg/injection, schedule: Q01DX001 (ip), vehicle: acetone",101 % of control
same,T/C,"dose: 80.0 mg/kg/injection, schedule: Q04DX002 (ip), vehicle: saline with Tween-80",98 % of control and 114 % of control
COc1ccc(N=Cc2ccccc2O)cc1,T/C,"dose: 100.0 mg/kg/injection, schedule: Q04DX003 (ip), vehicle: other",100 % of control
same,T/C,"dose: 200.0 mg/kg/injection, schedule: Q04DX003 (ip), vehicle: other",96 % of control
same,T/C,"dose: 400.0 mg/kg/injection, schedule: Q04DX003 (ip), vehicle: other",98 % of control
Cc1ccc2cccc(CC(=O)O)c2c1,T/C,"dose: 100.0 mg/kg/injection, schedule: Q01DX005 (ip), vehicle: saline with Tween-80",104 % of control
same,T/C,[1],96 % of control
same,T/C,"dose: 200.0 mg/kg/injection, schedule: Q01DX005 (ip), vehicle: saline with Tween-80",112 % of control
same,T/C,[2],96 % of control
same,T/C,"dose: 400.0 mg/kg/injection, schedule: Q01DX005 (ip), vehicle: saline with Tween-80",108 % of control
same,T/C,[3],115 % of control
CS(=O)c1ccc(/C=C2/C=Cc3ccccc32)cc1 (stereo not drawn),T/C,[4],91 % of control
same,T/C,[5],103 % of control
same,T/C,[6],101 % of control
O=C(c1cccs1)c1cccs1,T/C,"dose: 50.0 mg/kg/injection, schedule: Q01DX009 (ip), vehicle: saline with Tween-80",98 % of control
same,T/C,[1],100 % of control
same,T/C,[7],102 % of control
same,T/C,[2],94 % of control
same,T/C,[8],107 % of control
same,T/C,[3],96 % of control
same,T/C,[9],101 % of control
CCOc1ccc(/C=C2\N=C(c3cccc(Cl)c3)OC2=O)cc1,T/C,"dose: 100.0 mg/kg/injection, schedule: Q04DX002 (ip), vehicle: saline with Tween-80",93 % of control
same,T/C,[10],93 % of control
same,T/C,[11],96 % of control
COC1OC(CO)C(NC(N)=O)C1O (stereo not drawn),T/C,"dose: 100.0 mg/kg/injection, schedule: Q04DX002 (ip), vehicle: Klucel (hydroxypropylcellulose) (HPC)",105 % of control
same,T/C,"dose: 200.0 mg/kg/injection, schedule: Q04DX002 (ip), vehicle: Klucel (hydroxypropylcellulose) (HPC)",105 % of control
same,T/C,"dose: 400.0 mg/kg/injection, schedule: Q04DX002 (ip), vehicle: Klucel (hydroxypropylcellulose) (HPC)",111 % of control
Cc1nc(OCc2ccccc2)c(C(=O)OCc2ccccc2)nc1C,T/C,[1],103 % of control
same,T/C,[7],101 % of control
same,T/C,[2],97 % of control
same,T/C,[8],102 % of control
same,T/C,[3],101 % of control
same,T/C,[9],98 % of control
COC(=O)CCCCCCCCCC(=O)OC,T/C,[12],100 % of control
same,T/C,[4],97 % of control
same,T/C,[13],101 % of control
same,T/C,[5],96 % of control
same,T/C,[14],95 % of control
same,T/C,[6],94 % of control
CCOC(=O)c1ccc(NS(C)(=O)=O)cc1,T/C,[4],95 % of control
same,T/C,"dose: 100.0 mg/kg/injection, schedule: Q04DX003 (ip), vehicle: Klucel (hydroxypropylcellulose) (HPC)",114 % of control
same,T/C,[5],95 % of control
same,T/C,"dose: 200.0 mg/kg/injection, schedule: Q04DX003 (ip), vehicle: Klucel (hydroxypropylcellulose) (HPC)",102 % of control
same,T/C,[6],92 % of control
same,T/C,"dose: 400.0 mg/kg/injection, schedule: Q04DX003 (ip), vehicle: Klucel (hydroxypropylcellulose) (HPC)",100 % of control
O=C1CCCCCCCCC(=O)CCCCCCCC1,T/C,[7],89 % of control
same,T/C,[8],86 % of control
same,T/C,[9],100 % of control
C/C(=N\NC(=O)c1ccc([N+](=O)[O-])cc1)c1ccccc1,T/C,[15],87 % of control
same,T/C,[16],87 % of control
CC(C)=CCNC12CC3CC(CC(C3)C1)C2,T/C,"dose: 5.0 mg/kg/injection, schedule: Q01DX001 (ip), vehicle: saline",101 % of control
same,T/C,"dose: 10.0 mg/kg/injection, schedule: Q01DX001 (ip), vehicle: saline",106 % of control
same,T/C,"dose: 20.0 mg/kg/injection, schedule: Q01DX001 (ip), vehicle: saline",108 % of control
same,T/C,"dose: 40.0 mg/kg/injection, schedule: Q01DX001 (ip), vehicle: saline",107 % of control
same,T/C,"dose: 80.0 mg/kg/injection, schedule: Q01DX001 (ip), vehicle: saline",104 % of control
CC[CH2][Pb]([CH2]CC)([CH2]CC)[O]C(C)=O,T/C,"dose: 6.25 mg/kg/injection, schedule: Q04DX003 (ip), vehicle: Klucel (hydroxypropylcellulose) (HPC)",100 % of control
same,T/C,"dose: 12.5 mg/kg/injection, schedule: Q04DX003 (ip), vehicle: Klucel (hydroxypropylcellulose) (HPC)",103 % of control
same,T/C,"dose: 50.0 mg/kg/injection, schedule: Q01DX001 (ip), vehicle: saline",94 % of control
same,T/C,"dose: 100.0 mg/kg/injection, schedule: Q01DX001 (ip), vehicle: saline",94 % of control
CCN(CC)CC(=O)NCC(CCN1CCOCC1)c1cccc2ccccc12 (stereo not drawn),T/C,[17],96 % of control
same,T/C,[18],100 % of control
same,T/C,[19],93 % of control
CC(SC(C)c1ccccc1)c1ccccc1 (stereo not drawn),T/C,[1],93 % of control
same,T/C,[7],101 % of control
same,T/C,[2],91 % of control
same,T/C,[8],106 % of control
same,T/C,[9],97 % of control
N#CS/C=C/C(N)=O,T/C,"dose: 1.0 mg/kg/injection, schedule: Q01DX001 (ip), vehicle: saline",101 % of control
same,T/C,"dose: 2.0 mg/kg/injection, schedule: Q01DX001 (ip), vehicle: saline",99 % of control
same,T/C,"dose: 2.0 mg/kg/injection, schedule: Q01DX009 (ip), vehicle: saline",103 % of control
same,T/C,"dose: 4.0 mg/kg/injection, schedule: Q01DX001 (ip), vehicle: saline",95 % of control
same,T/C,"dose: 4.0 mg/kg/injection, schedule: Q01DX009 (ip), vehicle: saline",103 % of control
same,T/C,"dose: 8.0 mg/kg/injection, schedule: Q01DX001 (ip), vehicle: saline",94 % of control
same,T/C,"dose: 8.0 mg/kg/injection, schedule: Q01DX009 (ip), vehicle: saline",105 % of control
CCOc1ccccc1NCN1C(=O)c2ccccc2C1=O,T/C,[1],90 % of control
same,T/C,[10],223 % of control
same,T/C,[11],91 % of control
C[N+](C)(C)CCC[N+](C)(C)C,T/C,[20],108 % of control
same,T/C,[17],107 % of control
same,T/C,[21],106 % of control
same,T/C,[18],92 % of control
same,T/C,[22],106 % of control
same,T/C,[19],100 % of control
C/C(=N/OC(=O)N(C)C)c1ccccc1,T/C,[15],104 % of control
same,T/C,[16],101 % of control
same,T/C,"dose: 400.0 mg/kg/injection, schedule: Q01DX001 (ip), vehicle: carboxymethylcellulose (CMC)",90 % of control
CCCCCCCCCCCCC(CCCCCCCCCCCC)c1ccccc1,T/C,[12],112 % of control
same,T/C,[13],100 % of control
same,T/C,[14],96 % of control
CCCCCCOC(=O)/C=C(/C)OCCCCCC,T/C,[20],97 % of control
same,T/C,[17],94 % of control
same,T/C,[21],95 % of control
same,T/C,[18],96 % of control
same,T/C,[22],92 % of control
C=CCOC(=O)C(F)(F)F,T/C,"dose: 100.0 mg/kg/injection, schedule: Q04DX002 (ip), vehicle: saline",89 % of control
same,T/C,"dose: 200.0 mg/kg/injection, schedule: Q04DX002 (ip), vehicle: saline",86 % of control
COC(=O)CNC(=O)C(Cc1ccc(OCc2ccccc2)cc1)NC(=O)OC(C)(C)C (stereo not drawn),T/C,[20],98 % of control
same,T/C,[17],93 % of control
same,T/C,[21],106 % of control
same,T/C,[18],97 % of control
same,T/C,[22],96 % of control
same,T/C,[19],97 % of control
